# Test results reported in PubChem BioAssay AID1963967 (Molecular Pharmacology Branch, DTP, NCI, 2024).
# Test system: 855422-203-R-J1-PDC spheroids with HUVEC/MSC, viability
# Test: Anticancer human tumor 855422-203-R-J1-PDC patient-derived bladder carcinoma cell line growth inhibition [PI3K]
# Details: for IC50: curve of first compound; for viability, T/C: stronger effect = lower value
# How it was run: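 Combination activity was assessed by viability in multicellular tumor spheroids carrying HUVEC and MSC components. Agents were tested with PI3K inhibitors from a Cmax-based top dose (or 10 microM) downward in half-log increments.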
# [1] = second compound 0.0316 µM, first compound 0.0316 µM
# [2] = second compound 0.0316 µM, first compound 0.1 µM
# [3] = second compound 0.0316 µM, first compound 0.316 µM
# [4] = second compound 0.0316 µM, first compound 1 µM
# [5] = second compound 0.0316 µM, first compound 3.16 µM
# [6] = second compound 0.0316 µM, first compound 10 µM
# [7] = second compound 0.1 µM, first compound 0.0316 µM
# [8] = second compound 0.1 µM, first compound 0.1 µM
# [9] = second compound 0.1 µM, first compound 0.316 µM
# [10] = second compound 0.1 µM, first compound 1 µM
# [11] = second compound 0.1 µM, first compound 3.16 µM
# [12] = second compound 0.1 µM, first compound 10 µM
# [13] = second compound 0.316 µM, first compound 0.0316 µM
# [14] = second compound 0.316 µM, first compound 0.1 µM
# [15] = second compound 0.316 µM, first compound 0.316 µM
# [16] = second compound 0.316 µM, first compound 1 µM
# [17] = second compound 0.316 µM, first compound 3.16 µM
# [18] = second compound 0.316 µM, first compound 10 µM
# [19] = second compound 1 µM, first compound 0.0316 µM
# [20] = second compound 1 µM, first compound 0.1 µM
# [21] = second compound 1 µM, first compound 0.316 µM
# [22] = second compound 1 µM, first compound 1 µM
# [23] = second compound 1 µM, first compound 3.16 µM
# [24] = second compound 1 µM, first compound 10 µM
# [25] = second compound 3.16 µM, first compound 0.0316 µM
# [26] = second compound 3.16 µM, first compound 0.1 µM
# [27] = second compound 3.16 µM, first compound 0.316 µM
# [28] = second compound 3.16 µM, first compound 1 µM
# [29] = second compound 3.16 µM, first compound 3.16 µM
# [30] = second compound 3.16 µM, first compound 10 µM
# [31] = second compound 10 µM, first compound 0.0316 µM
# [32] = second compound 10 µM, first compound 0.1 µM
# [33] = second compound 10 µM, first compound 0.316 µM
# [34] = second compound 10 µM, first compound 1 µM
# [35] = second compound 10 µM, first compound 3.16 µM
# [36] = second compound 10 µM, first compound 10 µM
# 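Note: agents incubated with spheroids for one week before read-out.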
# 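Throughout, for viability, T/C: 100% = DMSO vehicle-treated control wells.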
smiles,measurement,setting,value
C#Cc1c(F)ccc2cc(O)cc(-c3ncc4c(N5CC6CCC(C5)N6)nc(OCC56CCCN5CC(F)C6)nc4c3F)c12 (stereo not drawn) + CC(Nc1ncnc2nc[nH]c12)c1cc2cccc(Cl)c2c(=O)n1-c1ccccc1,IC50,second compound 0.0316 µM,> 10000 nM
same,IC50,second compound 0.1 µM,> 10000 nM
same,IC50,second compound 0.316 µM,> 10000 nM
same,IC50,second compound 1 µM,> 10000 nM
same,IC50,second compound 3.16 µM,> 10000 nM
same,IC50,second compound 10 µM,> 10000 nM
same,"viability, T/C",[1],105%
same,"viability, T/C",[2],101%
same,"viability, T/C",[3],116%
same,"viability, T/C",[4],98.3%
same,"viability, T/C",[5],112%
same,"viability, T/C",[6],119%
same,"viability, T/C",[7],107%
same,"viability, T/C",[8],102%
same,"viability, T/C",[9],107%
same,"viability, T/C",[10],101%
same,"viability, T/C",[11],110%
same,"viability, T/C",[12],112%
same,"viability, T/C",[13],98.1%
same,"viability, T/C",[14],108%
same,"viability, T/C",[15],96.6%
same,"viability, T/C",[16],102%
same,"viability, T/C",[17],106%
same,"viability, T/C",[18],121%
same,"viability, T/C",[19],102%
same,"viability, T/C",[20],102%
same,"viability, T/C",[21],103%
same,"viability, T/C",[22],109%
same,"viability, T/C",[23],104%
same,"viability, T/C",[24],115%
same,"viability, T/C",[25],107%
same,"viability, T/C",[26],99.1%
same,"viability, T/C",[27],112%
same,"viability, T/C",[28],93.7%
same,"viability, T/C",[29],98.1%
same,"viability, T/C",[30],126%
same,"viability, T/C",[31],87.2%
same,"viability, T/C",[32],82.8%
same,"viability, T/C",[33],80%
same,"viability, T/C",[34],88.5%
same,"viability, T/C",[35],94%
same,"viability, T/C",[36],88.9%
CC(Cn1ccc(-c2ccc(C#N)c(Cl)c2)n1)NC(=O)c1cc(C(C)O)[nH]n1 (stereo not drawn) + CC(Nc1ncnc2nc[nH]c12)c1cc2cccc(Cl)c2c(=O)n1-c1ccccc1,IC50,second compound 0.0316 µM,> 10000 nM
same,IC50,second compound 0.1 µM,> 10000 nM
same,IC50,second compound 0.316 µM,> 10000 nM
same,IC50,second compound 1 µM,> 10000 nM
same,IC50,second compound 3.16 µM,> 10000 nM
same,IC50,second compound 10 µM,> 10000 nM
same,"viability, T/C",[1],105%
same,"viability, T/C",[2],93.3%
same,"viability, T/C",[3],113%
same,"viability, T/C",[4],98.3%
same,"viability, T/C",[5],91.6%
same,"viability, T/C",[6],67.8%
same,"viability, T/C",[7],105%
same,"viability, T/C",[8],107%
same,"viability, T/C",[9],106%
same,"viability, T/C",[10],105%
same,"viability, T/C",[11],90.3%
same,"viability, T/C",[12],82.8%
same,"viability, T/C",[13],97%
same,"viability, T/C",[14],104%
same,"viability, T/C",[15],96.6%
same,"viability, T/C",[16],112%
same,"viability, T/C",[17],89.9%
same,"viability, T/C",[18],77.4%
same,"viability, T/C",[19],92.9%
same,"viability, T/C",[20],108%
same,"viability, T/C",[21],107%
same,"viability, T/C",[22],103%
same,"viability, T/C",[23],95.5%
same,"viability, T/C",[24],95.7%
same,"viability, T/C",[25],97.3%
same,"viability, T/C",[26],91.1%
same,"viability, T/C",[27],108%
same,"viability, T/C",[28],101%
same,"viability, T/C",[29],90.4%
same,"viability, T/C",[30],78.7%
same,"viability, T/C",[31],88.5%
same,"viability, T/C",[32],84.9%
same,"viability, T/C",[33],89.5%
same,"viability, T/C",[34],82.3%
same,"viability, T/C",[35],74.5%
same,"viability, T/C",[36],70%
CC1(C)CCC(Nc2ncc(C(F)(F)F)c(-c3c[nH]c4c(P(C)(C)=O)c(C#N)ccc34)n2)CN1 (stereo not drawn) + CC(Nc1ncnc2nc[nH]c12)c1cc2cccc(Cl)c2c(=O)n1-c1ccccc1,IC50,second compound 0.0316 µM,< 31.6 nM
same,IC50,second compound 0.1 µM,< 31.6 nM
same,IC50,second compound 0.316 µM,< 31.6 nM
same,IC50,second compound 1 µM,< 31.6 nM
same,IC50,second compound 3.16 µM,< 31.6 nM
same,IC50,second compound 10 µM,< 31.6 nM
same,"viability, T/C",[1],30.3%
same,"viability, T/C",[2],24.1%
same,"viability, T/C",[3],25%
same,"viability, T/C",[4],26.8%
same,"viability, T/C",[5],28.9%
same,"viability, T/C",[6],3.47%
same,"viability, T/C",[7],27.4%
same,"viability, T/C",[8],25%
same,"viability, T/C",[9],24.6%
same,"viability, T/C",[10],27%
same,"viability, T/C",[11],30.2%
same,"viability, T/C",[12],5.41%
same,"viability, T/C",[13],27.2%
same,"viability, T/C",[14],24.9%
same,"viability, T/C",[15],23.8%
same,"viability, T/C",[16],27.5%
same,"viability, T/C",[17],31.6%
same,"viability, T/C",[18],4.23%
same,"viability, T/C",[19],24.2%
same,"viability, T/C",[20],28.2%
same,"viability, T/C",[21],27.2%
same,"viability, T/C",[22],26.7%
same,"viability, T/C",[23],26%
same,"viability, T/C",[24],5.15%
same,"viability, T/C",[25],23%
same,"viability, T/C",[26],23.1%
same,"viability, T/C",[27],24.6%
same,"viability, T/C",[28],23.9%
same,"viability, T/C",[29],26.6%
same,"viability, T/C",[30],2.74%
same,"viability, T/C",[31],23.8%
same,"viability, T/C",[32],21.4%
same,"viability, T/C",[33],18.8%
same,"viability, T/C",[34],23.7%
same,"viability, T/C",[35],18.9%
same,"viability, T/C",[36],1.26%
Cn1cnc2c(F)c(Nc3ccc(Br)cc3Cl)c(C(=O)NOCCO)cc21 + COc1c(OCCCN2CCOCC2)ccc2c3n(c(=NC(=O)c4cnc(N)nc4)nc12)CCN3,IC50,second compound 0.00316 µM,2440 nM
same,IC50,second compound 0.01 µM,1570 nM
same,IC50,second compound 0.0316 µM,283 nM
same,IC50,second compound 0.1 µM,< 9.49 nM
same,IC50,second compound 0.316 µM,< 9.49 nM
same,IC50,second compound 1 µM,< 9.49 nM
same,"viability, T/C","second compound 0.00316 µM, first compound 0.00949 µM",94.1%
same,"viability, T/C","second compound 0.00316 µM, first compound 0.03 µM",88.1%
same,"viability, T/C","second compound 0.00316 µM, first compound 0.0949 µM",91.4%
same,"viability, T/C","second compound 0.00316 µM, first compound 0.3 µM",93.5%
same,"viability, T/C","second compound 0.00316 µM, first compound 0.949 µM",90.1%
same,"viability, T/C","second compound 0.00316 µM, first compound 3 µM",41.2%
same,"viability, T/C","second compound 0.01 µM, first compound 0.00949 µM",73.6%
same,"viability, T/C","second compound 0.01 µM, first compound 0.03 µM",90.6%
same,"viability, T/C","second compound 0.01 µM, first compound 0.0949 µM",82%
same,"viability, T/C","second compound 0.01 µM, first compound 0.3 µM",85.9%
same,"viability, T/C","second compound 0.01 µM, first compound 0.949 µM",66.2%
same,"viability, T/C","second compound 0.01 µM, first compound 3 µM",29.1%
same,"viability, T/C","second compound 0.0316 µM, first compound 0.00949 µM",64%
same,"viability, T/C","second compound 0.0316 µM, first compound 0.03 µM",64%
same,"viability, T/C","second compound 0.0316 µM, first compound 0.0949 µM",60.8%
same,"viability, T/C","second compound 0.0316 µM, first compound 0.3 µM",47.1%
same,"viability, T/C","second compound 0.0316 µM, first compound 0.949 µM",34.6%
same,"viability, T/C","second compound 0.0316 µM, first compound 3 µM",12.7%
same,"viability, T/C","second compound 0.1 µM, first compound 0.00949 µM",30.8%
same,"viability, T/C","second compound 0.1 µM, first compound 0.03 µM",26.1%
same,"viability, T/C","second compound 0.1 µM, first compound 0.0949 µM",22.2%
same,"viability, T/C","second compound 0.1 µM, first compound 0.3 µM",21.8%
same,"viability, T/C","second compound 0.1 µM, first compound 0.949 µM",10.2%
same,"viability, T/C","second compound 0.1 µM, first compound 3 µM",2.98%
same,"viability, T/C","second compound 0.316 µM, first compound 0.00949 µM",8.62%
same,"viability, T/C","second compound 0.316 µM, first compound 0.03 µM",6.53%
same,"viability, T/C","second compound 0.316 µM, first compound 0.0949 µM",5.43%
same,"viability, T/C","second compound 0.316 µM, first compound 0.3 µM",4.82%
same,"viability, T/C","second compound 0.316 µM, first compound 0.949 µM",2.2%
same,"viability, T/C","second compound 0.316 µM, first compound 3 µM",0.34%
same,"viability, T/C","second compound 1 µM, first compound 0.00949 µM",3.01%
same,"viability, T/C","second compound 1 µM, first compound 0.03 µM",3.36%
same,"viability, T/C","second compound 1 µM, first compound 0.0949 µM",1.65%
same,"viability, T/C","second compound 1 µM, first compound 0.3 µM",2.9%
same,"viability, T/C","second compound 1 µM, first compound 0.949 µM",0.38%
same,"viability, T/C","second compound 1 µM, first compound 3 µM",0.99%
